# In ChEMBL document CHEMBL1777813, “Discovery of novel tetracyclic compounds as anaplastic lymphoma kinase inhibitors” (Bioorg Med Chem Lett, 2011):
# Activity calls are given as the source filed them. The calls are words filed in the database; no cut-off is given here.
# Experiments:
# [1] = test system: KARPAS-299; assay: cells; conditions: Homo sapiens, KARPAS-299, 96 h
# [2] = Clearance in human liver microsomes at 1 uM after 30 mins in presence of NADPH; assay type: ADME, Microsome
# [3] = Clearance in mouse liver microsomes at 1 uM after 30 mins in presence of NADPH; assay type: ADME, Microsome
# [4] = biological target: ALK tyrosine kinase receptor (Homo sapiens, UniProt Q9UM73)
# [5] = biological target: T1, Protein kinase C beta type (Homo sapiens, UniProt P05771); assay: Inhibition of PKCbeta1 assessed as FLC-SIYRRGSRRWRKL peptide phosphorylation by fluorescence polarization assay
# [6] = test system: KARPAS-299; assay: Antitumor activity against human KARPAS299 cells expressing NPM-ALK xenografted in SCID mouse assessed as tumor regression at 6 to 60 mg/kg, po qd for 11 days; assay type: functional, organism-based
# [7] = biological target: Vascular endothelial growth factor receptor 2 (Homo sapiens, UniProt P35968); assay: Inhibition of KDR assessed as biotin-EGPWLEEEEEAYGWMDF peptide phosphorylation by TR-FRET assay
# [8] = biological target: T2, Aurora kinase A (Homo sapiens, UniProt O14965); assay: Inhibition of aurora A assessed as FLC-LRRASLG peptide phosphorylation by fluorescence polarization assay
# T2 sequence (O14965 whole entry): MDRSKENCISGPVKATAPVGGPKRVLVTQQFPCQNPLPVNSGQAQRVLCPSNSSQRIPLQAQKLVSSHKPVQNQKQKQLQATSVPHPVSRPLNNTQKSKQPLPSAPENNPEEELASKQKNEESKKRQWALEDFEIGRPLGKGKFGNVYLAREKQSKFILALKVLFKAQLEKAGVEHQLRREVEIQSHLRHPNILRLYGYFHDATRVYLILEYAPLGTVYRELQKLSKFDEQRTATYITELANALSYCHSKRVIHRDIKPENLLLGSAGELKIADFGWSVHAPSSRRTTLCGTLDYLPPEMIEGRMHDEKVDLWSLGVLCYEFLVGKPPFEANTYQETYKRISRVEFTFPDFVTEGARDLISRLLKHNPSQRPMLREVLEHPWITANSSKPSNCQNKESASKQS
# [9] = biological target: Receptor tyrosine-protein kinase erbB-2 (Homo sapiens, UniProt P04626); assay: Inhibition of HER2 assessed as biotin-HEQEDEPEGDYFEWLEPE peptide phosphorylation by TR-FRET assay
# [10] = biological target: RAC-alpha serine/threonine-protein kinase (Homo sapiens, UniProt P31749); assay: Inhibition of AKT1 assessed as FI-H1-peptide phosphorylation by fluorescence polarization assay
# [11] = biological target: Insulin-like growth factor 1 receptor (Homo sapiens, UniProt P08069); assay: Inhibition of IGF1R assessed as biotin-EGPWLEEEEEAYGWMDF peptide phosphorylation by TR-FRET assay
# [12] = test system: KARPAS-299; assay: Antitumor activity against human KARPAS299 cells expressing NPM-ALK xenografted in SCID mouse assessed as reduction of tumor volume administered as po qd for 11 days; assay type: functional, organism-based
# [13] = biological target: Proto-oncogene tyrosine-protein kinase Src (Homo sapiens, UniProt P12931); assay: Inhibition of Src assessed as biotin-EGPWLEEEEEAYGWMDF peptide phosphorylation by TR-FRET assay
# [14] = test system: NCI-H2228; assay: Antitumor activity against human NCI-H2228 cells expressing EML4-ALK xenografted in SCID mouse assessed as reduction of tumor volume administered as po qd for 11 days; assay type: functional, organism-based
# [15] = biological target: T1, Protein kinase C beta type; assay: Inhibition of PKCbeta2 assessed as FLC-SIYRRGSRRWRKL peptide phosphorylation by fluorescence polarization assay
# [16] = biological target: Protein kinase C alpha type (Homo sapiens, UniProt P17252); assay: Inhibition of PKCalpha assessed as FLC-SIYRRGSRRWRKL peptide phosphorylation by fluorescence polarization assay
# [17] = test system: NCI-H2228; assay: Antitumor activity against human NCI-H2228 cells expressing EML4-ALK xenografted in SCID mouse assessed as tumor regression at 0.2 to 20 mg/kg, po qd for 11 days; assay type: functional, organism-based
# [18] = biological target: Tyrosine-protein kinase ABL1 (Homo sapiens, UniProt P00519); assay: Inhibition of Abl assessed as biotin-EGPWLEEEEEAYGWMDF peptide phosphorylation by TR-FRET assay
# [19] = biological target: Epidermal growth factor receptor (Homo sapiens, UniProt P00533); assay: Inhibition of EGFR assessed as biotin-EGPWLEEEEEAYGWMDF peptide phosphorylation by TR-FRET assay
# [20] = biological target: RAF proto-oncogene serine/threonine-protein kinase (Homo sapiens, UniProt P04049); assay: Inhibition of Raf1 assessed as MEK1/2 phosphorylation by fluorescence polarization assay
# [21] = biological target: Fibroblast growth factor receptor 2 (Homo sapiens, UniProt P21802); assay: Inhibition of FGFR2 assessed as biotin-EGPWLEEEEEAYGWMDF peptide phosphorylation by TR-FRET assay
# [22] = test system: Mus musculus; assay: Toxicity in human KARPAS299 cells expressing NPM-ALK xenografted SCID mouse administered as change in body weight at 6 to 60 mg/kg, po qd for 11 days; assay type: organism-based, KARPAS-299; design: dose 6-60 mg/kg, route oral; conditions: in vivo, 264 h
# [23] = test system: Mus musculus; assay: Toxicity in human NCI-H2228 cells expressing EML4-ALK xenografted SCID mouse administered as change in body weight at 0.2 to 20 mg/kg, po qd for 11 days; assay type: organism-based; design: dose 0.2-20 mg/kg, route oral; conditions: in vivo, 264 h
# [24] = biological target: Mast/stem cell growth factor receptor Kit (Homo sapiens, UniProt P10721); assay: Inhibition of Kit assessed as biotin-HEQEDEPEGDYFEWLEPE peptide phosphorylation by TR-FRET assay
# Sequence of ALK tyrosine kinase receptor (Q9UM73 whole entry): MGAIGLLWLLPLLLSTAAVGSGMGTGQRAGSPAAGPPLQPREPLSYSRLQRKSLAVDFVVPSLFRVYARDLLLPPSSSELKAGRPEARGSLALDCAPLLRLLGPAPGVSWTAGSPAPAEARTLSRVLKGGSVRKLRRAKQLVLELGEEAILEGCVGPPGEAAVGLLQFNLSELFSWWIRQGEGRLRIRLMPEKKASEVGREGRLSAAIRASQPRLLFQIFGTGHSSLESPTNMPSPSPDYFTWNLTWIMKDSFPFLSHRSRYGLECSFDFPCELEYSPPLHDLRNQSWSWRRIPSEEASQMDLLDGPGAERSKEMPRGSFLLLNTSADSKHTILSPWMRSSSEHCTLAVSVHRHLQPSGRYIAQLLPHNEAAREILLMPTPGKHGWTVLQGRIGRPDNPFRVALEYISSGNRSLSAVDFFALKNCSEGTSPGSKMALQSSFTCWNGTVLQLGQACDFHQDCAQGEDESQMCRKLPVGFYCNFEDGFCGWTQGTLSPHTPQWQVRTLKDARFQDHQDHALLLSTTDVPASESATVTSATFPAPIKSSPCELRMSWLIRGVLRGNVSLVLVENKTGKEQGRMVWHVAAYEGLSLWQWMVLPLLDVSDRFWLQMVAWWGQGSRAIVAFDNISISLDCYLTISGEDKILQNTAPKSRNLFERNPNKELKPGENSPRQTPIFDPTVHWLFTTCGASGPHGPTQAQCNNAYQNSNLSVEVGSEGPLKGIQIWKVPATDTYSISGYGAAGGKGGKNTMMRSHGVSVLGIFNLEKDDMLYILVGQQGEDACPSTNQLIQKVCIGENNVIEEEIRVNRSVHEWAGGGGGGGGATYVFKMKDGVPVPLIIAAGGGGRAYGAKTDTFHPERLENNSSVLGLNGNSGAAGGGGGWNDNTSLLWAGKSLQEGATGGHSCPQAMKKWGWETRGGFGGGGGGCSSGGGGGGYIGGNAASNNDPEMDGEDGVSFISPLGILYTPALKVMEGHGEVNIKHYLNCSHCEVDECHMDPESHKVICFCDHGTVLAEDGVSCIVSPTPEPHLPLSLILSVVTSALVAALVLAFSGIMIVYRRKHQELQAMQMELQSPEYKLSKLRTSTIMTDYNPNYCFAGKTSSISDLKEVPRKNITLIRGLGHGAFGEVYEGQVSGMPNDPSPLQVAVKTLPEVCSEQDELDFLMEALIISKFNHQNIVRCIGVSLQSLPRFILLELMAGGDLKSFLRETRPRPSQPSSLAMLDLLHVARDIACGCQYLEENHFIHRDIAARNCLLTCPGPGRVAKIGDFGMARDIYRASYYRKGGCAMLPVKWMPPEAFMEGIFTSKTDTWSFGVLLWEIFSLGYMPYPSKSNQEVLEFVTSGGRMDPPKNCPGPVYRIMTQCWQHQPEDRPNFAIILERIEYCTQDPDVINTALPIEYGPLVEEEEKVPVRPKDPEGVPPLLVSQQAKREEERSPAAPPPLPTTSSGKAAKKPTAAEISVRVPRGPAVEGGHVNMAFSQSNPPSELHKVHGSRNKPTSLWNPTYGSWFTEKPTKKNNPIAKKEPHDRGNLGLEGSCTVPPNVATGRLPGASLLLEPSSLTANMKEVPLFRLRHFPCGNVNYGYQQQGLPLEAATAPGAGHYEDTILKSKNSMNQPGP
# T1 sequence (P05771 whole entry): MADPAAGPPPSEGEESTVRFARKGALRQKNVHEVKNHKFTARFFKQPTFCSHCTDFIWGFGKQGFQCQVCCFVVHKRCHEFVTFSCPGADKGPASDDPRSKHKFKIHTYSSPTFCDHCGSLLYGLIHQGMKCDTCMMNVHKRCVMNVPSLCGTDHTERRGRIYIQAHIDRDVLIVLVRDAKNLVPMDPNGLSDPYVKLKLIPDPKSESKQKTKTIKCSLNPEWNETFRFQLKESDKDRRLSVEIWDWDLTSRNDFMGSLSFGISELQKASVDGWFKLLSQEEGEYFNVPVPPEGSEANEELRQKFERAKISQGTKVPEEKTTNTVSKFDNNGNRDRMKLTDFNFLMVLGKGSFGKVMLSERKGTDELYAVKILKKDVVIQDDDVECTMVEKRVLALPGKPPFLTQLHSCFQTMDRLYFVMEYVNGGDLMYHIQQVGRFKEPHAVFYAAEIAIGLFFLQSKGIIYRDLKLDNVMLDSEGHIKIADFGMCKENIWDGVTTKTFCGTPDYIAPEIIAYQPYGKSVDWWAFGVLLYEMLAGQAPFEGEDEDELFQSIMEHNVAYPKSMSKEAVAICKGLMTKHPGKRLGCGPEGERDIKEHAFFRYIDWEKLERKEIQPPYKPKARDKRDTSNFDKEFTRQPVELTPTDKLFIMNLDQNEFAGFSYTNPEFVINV
# Sequence of Vascular endothelial growth factor receptor 2 (P35968 whole entry): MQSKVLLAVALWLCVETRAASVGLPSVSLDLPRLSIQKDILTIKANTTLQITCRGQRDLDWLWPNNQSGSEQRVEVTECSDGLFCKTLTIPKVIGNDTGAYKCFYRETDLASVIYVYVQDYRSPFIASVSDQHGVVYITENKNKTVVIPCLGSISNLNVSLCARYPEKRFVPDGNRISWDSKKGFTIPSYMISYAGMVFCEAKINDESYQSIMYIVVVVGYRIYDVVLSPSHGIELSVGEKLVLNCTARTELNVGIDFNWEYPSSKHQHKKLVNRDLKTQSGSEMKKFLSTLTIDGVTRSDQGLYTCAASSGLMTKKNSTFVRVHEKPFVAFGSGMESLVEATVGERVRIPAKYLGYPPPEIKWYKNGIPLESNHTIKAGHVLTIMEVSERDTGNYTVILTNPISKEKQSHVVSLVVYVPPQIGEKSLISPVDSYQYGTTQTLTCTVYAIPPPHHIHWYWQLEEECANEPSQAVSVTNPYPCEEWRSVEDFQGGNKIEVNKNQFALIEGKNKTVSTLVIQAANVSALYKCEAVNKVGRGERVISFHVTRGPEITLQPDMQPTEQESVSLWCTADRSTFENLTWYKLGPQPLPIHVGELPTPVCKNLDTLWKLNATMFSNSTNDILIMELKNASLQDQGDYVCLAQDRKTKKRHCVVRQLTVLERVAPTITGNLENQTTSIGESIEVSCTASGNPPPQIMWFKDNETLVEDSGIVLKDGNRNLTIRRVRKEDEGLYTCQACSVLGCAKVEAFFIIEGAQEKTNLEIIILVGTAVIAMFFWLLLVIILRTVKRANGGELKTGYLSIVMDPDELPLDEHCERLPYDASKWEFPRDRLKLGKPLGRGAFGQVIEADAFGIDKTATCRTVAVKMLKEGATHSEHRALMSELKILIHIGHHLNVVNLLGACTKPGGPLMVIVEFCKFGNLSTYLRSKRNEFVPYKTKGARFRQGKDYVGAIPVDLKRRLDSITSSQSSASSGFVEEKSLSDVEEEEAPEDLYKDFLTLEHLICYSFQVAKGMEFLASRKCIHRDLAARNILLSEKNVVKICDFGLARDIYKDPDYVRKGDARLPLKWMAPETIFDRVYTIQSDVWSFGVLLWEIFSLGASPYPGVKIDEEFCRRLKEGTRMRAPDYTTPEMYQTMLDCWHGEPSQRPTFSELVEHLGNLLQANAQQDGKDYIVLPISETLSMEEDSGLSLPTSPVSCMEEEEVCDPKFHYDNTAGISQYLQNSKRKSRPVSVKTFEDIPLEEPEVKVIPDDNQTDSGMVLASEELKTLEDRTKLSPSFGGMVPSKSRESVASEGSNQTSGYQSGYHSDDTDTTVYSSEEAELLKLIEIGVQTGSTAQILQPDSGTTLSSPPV
# Sequence of Epidermal growth factor receptor (P00533 whole entry): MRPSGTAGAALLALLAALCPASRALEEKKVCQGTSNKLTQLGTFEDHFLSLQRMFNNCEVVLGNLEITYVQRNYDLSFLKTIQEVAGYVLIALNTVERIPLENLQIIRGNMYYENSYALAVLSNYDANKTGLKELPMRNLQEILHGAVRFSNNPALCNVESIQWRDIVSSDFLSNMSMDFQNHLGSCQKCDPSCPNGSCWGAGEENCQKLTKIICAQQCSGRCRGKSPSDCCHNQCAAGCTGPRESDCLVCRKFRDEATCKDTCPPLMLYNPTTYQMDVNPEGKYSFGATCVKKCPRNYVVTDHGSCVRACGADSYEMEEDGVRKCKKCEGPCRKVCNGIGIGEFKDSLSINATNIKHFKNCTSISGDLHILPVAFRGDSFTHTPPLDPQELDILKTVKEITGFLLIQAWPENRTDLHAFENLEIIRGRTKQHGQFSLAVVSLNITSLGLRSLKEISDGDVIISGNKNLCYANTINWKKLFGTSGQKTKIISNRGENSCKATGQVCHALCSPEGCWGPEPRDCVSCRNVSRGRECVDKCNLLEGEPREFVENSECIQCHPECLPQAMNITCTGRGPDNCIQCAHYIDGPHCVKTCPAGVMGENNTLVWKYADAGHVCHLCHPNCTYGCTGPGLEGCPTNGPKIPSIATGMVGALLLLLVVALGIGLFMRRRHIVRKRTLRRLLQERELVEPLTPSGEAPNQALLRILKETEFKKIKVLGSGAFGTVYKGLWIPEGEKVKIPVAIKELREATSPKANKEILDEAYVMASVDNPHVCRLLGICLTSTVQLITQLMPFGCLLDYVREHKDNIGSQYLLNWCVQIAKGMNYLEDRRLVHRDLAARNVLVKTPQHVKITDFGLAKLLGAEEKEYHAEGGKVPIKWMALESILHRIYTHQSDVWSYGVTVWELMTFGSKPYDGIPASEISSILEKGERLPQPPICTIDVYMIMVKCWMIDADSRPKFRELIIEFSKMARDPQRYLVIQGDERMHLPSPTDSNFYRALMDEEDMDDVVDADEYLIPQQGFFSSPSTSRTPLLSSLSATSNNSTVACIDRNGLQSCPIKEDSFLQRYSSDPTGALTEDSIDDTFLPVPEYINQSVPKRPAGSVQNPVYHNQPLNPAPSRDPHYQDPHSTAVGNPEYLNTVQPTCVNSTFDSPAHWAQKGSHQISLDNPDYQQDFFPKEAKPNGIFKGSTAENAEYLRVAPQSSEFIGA
Structure (SMILES),IC50 [1] [nM],microsomal CLint at 1 µM [2] [µL/min/mg],microsomal CLint at 1 µM [3] [µL/min/mg],IC50 [4] [nM],further results
CC1(C)c2cc(N3CCN(S(C)(=O)=O)CC3)ccc2C(=O)c2c1[nH]c1cc(C#N)ccc21,263,19.2,15.8,37.4,
CC1(C)c2cc(C3CCN(C4COC4)CC3)ccc2C(=O)c2c1[nH]c1cc(C#N)ccc21,,10.2,10.4,,IC50 [5]: > 50000 nM; Activity [6]: Active; IC50 [7]: 100 nM; IC50 [8]: > 50000 nM; IC50 [9]: > 50000 nM; IC50 [10]: > 50000 nM; IC50 [11]: 1000 nM; Activity [12]: Dose-dependent effect; IC50 [13]: 250 nM; Activity [14]: Dose-dependent effect; IC50 [15]: > 50000 nM; IC50 [16]: > 50000 nM; Activity [17]: Active; IC50 [18]: 370 nM; IC50 [19]: > 50000 nM; IC50 [20]: > 50000 nM; IC50 [21]: 360 nM; Activity [22]: Non-toxic; Activity [23]: Non-toxic; IC50 [24]: > 50000 nM
CCN(CC)CCOc1ccc2c(c1)C(C)(C)c1[nH]c3cc(C#N)ccc3c1C2=O,60,54.5,51.4,,
CC(=O)NCCOc1ccc2c(c1)C(C)(C)c1[nH]c3cc(C#N)ccc3c1C2=O,397,4.2,14.1,11.6,
CCN(CC)CCOc1ccc2c(c1)C(C)(C)c1[nH]c3cc([N+](=O)[O-])ccc3c1C2=O,570,,,,
CC(C)N1CCN(c2ccc3c(c2)C(C)(C)c2[nH]c4cc(C#N)ccc4c2C3=O)CC1,,82.7,23.1,,
CC1(C)c2cc(N3CCOCC3)ccc2C(=O)c2c1[nH]c1cc(C#N)ccc21,134,33.6,8.1,18.5,
CCN(CC)CCOc1ccc2c(c1)C(C)(C)c1[nH]c3cc(Cl)ccc3c1C2=O,490,,,,
CCN(CC)CCOc1ccc2c(c1)C(C)(C)c1oc3cc(Br)ccc3c1C2=O,,,,770,
CCN(CC)CCOc1ccc2c(c1)C(C)(C)c1[nH]c3cc(Br)ccc3c1C2=O,680,,,,
CC1(C)c2cc(N3CCCCC3)ccc2C(=O)c2c1[nH]c1cc(C#N)ccc21,331,39.5,58.9,33.4,
CC1(C)c2cc(OCCN3CCS(=O)(=O)CC3)ccc2C(=O)c2c1[nH]c1cc(C#N)ccc21,87.5,67,24.9,3.7,
CCCOc1ccc2c3c(oc2c1)C(C)(C)c1cc(OCCN(CC)CC)ccc1C3=O,,,,2470,
CC1(C)c2cc(N3CCN(C4COC4)CC3)ccc2C(=O)c2c1[nH]c1cc(C#N)ccc21,47.9,9.6,15.1,27,
CCN(CC)CCOc1ccc2c(c1)C(C)(C)c1oc3cc(Cl)ccc3c1C2=O,,,,660,
CC1(C)c2cc(N3CCC(O)CC3)ccc2C(=O)c2c1[nH]c1cc(C#N)ccc21,115,7.1,24.6,11.4,
CCN(CC)CCOc1ccc2c(c1)C(C)(C)c1oc3cc(C(F)(F)F)ccc3c1C2=O,,,,3470,
CC1(C)c2cc(OCCNC(N)=O)ccc2C(=O)c2c1[nH]c1cc(C#N)ccc21,2310,4,6.8,,
